Assay results published in patent US5759573A, “Cyclodextrin liposomes encapsulating pharmacologic compounds and methods for their use” (DepoTech Corporation, priority 1995, dated 1998).

Assays:
in vivo [1] = details: rat
Method: Rats were anesthetized with ketamine HCl (90 mg/kg and acetopromazine maleate (2.2 mg/kg, injected intramuscularly) and mounted in a conventional stereotaxic frame. Using a No. 15 blade, a midline cutaneous incision approximately 1 cm in length was made from the occipital crest to just behind the ears. The muscle ligament along the occipital crest at the skull was detached with a scalpel for 4 mm on either side of the midline. Using both the sharp and blunt ends of a periosteal elevator, the muscle from the occipital bone was freed down to the atlanto-occipital membrane. A retractor was placed in the incision to draw the muscle aside and obtain a clear view of the atlanto-occipital membrane. […] The needle was withdrawn, the skin was sutured with 3-0 silk, and the animal was given 10 ml lactated Ringer'solution subcutaneously for hydration.
At appropriate time points after injection, the atlanto-occipital membrane was again exposed under anesthesia and a sample of cerebrospinal fluid ranging from 30 to 60 μl was obtained through a 19-gauge needle. […] The cerebrospinal fluid samples were then kept frozen at -20° C. until analyzed using a high-performanceliquid chromatography (HPLC) system as described below.
After cerebrospinal fluid sampling, the animals were sacrificed with an overdose of ketamine (90 mg/kg) and acetopromazine (20 mg/kg), injected intraperitoneally. Blood samples were obtained via cardiac puncture and thorough exsanguination was performed. […] The calvarium was then exposed and carefully removed with a bone rongeur. The entire content of the cranial compartment was collected by scooping out the exposed brain with a spatula and washing the cranial vault thoroughly with distilled water. The spinal compartment content was then collected separately; the spinal cord was extruded forward into the cranial vault by pushing distilled water rapidly through a 19-gauge needle inserted into the lower lumbar spinal canal at a point 2.5 cm rostral to the origin of the tail. […] The cranial compartment samples were analyzed separately from the spinal canal samples. Both tissue samples were homogenized with water using a Polytron homogenizer.
The homogenized samples of brain or spinal cord were analyzed with HPLC after extraction as described by Alkayal et al. Ther. Drug Monit. 12:191 (1990). Briefly, in a glass centrifuge tube, a 500 μl aliquot of homogenate, 100 μl of theophylline aqueous solution (internal standard, 2.0 mg/ml), 250 μl trichloroacetic acid solution (10% in water), and 250 μl glacial acetic acid were placed and mixed. […] Ethyl acetate organic phase was decanted and evaporated under nitrogen at 60° C. The extracted residue was dissolved in 200 μl of mobile phase and 100 μl of the resulting solution was injected into the HPLC.
The RSTRIP computer program (MicroMath Scientific Software, Salt Lake City, Utah) was used to perform the pharmacokinetics analysis.

L1210 leukemia [2] = assay: Efficacy of single subcutaneous dose in murine L1210 model (increased life span); format: in vivo, mouse (BDF1); details: L1210, single sc dose on Day 1, increased life span
Description: BDF1 and DBA/2J mice were from Simonsen Laboratories, Gilroy, Calif. The L1210 leukemia was maintained by serial intraperitoneal passage in DBA/2J female mice.
(§1) Five animals were in each group except for the control (given 0.9% NaCl alone), where 10 animals were used. […] Median survival time was used to calculate the "increased life span" (ILS) according to the formula: […]
where T is the median survival time of treated groups and C is the median survival time for control groups.
(§2) The LD50 was calculated after probit transformation.

in vivo [3] = details: mouse, sc
Method: as §1, §2

L1210 leukemia [4] = assay: Efficacy of single intraperitoneal dose in murine L1210 model (increased life span); format: in vivo, mouse (BDF1); details: L1210, single ip dose on Day 1, increased life span
Method: (§3) There were five mice per group and fifteen mice were used as untreated controls (given 1 ml of 0.9% NaCl solution). The result was expressed as "increased life span".

[5] = Toxicity and therapeutic index of single intraperitoneal dose; parameters: species or system mouse (BDF1); details: in vivo; mouse, single ip dose, probit transformation
Method: as §3
LD50 was calculated after probit transformation by PHARM/PCS program (MicroComputer Specialists, Philadelphia, Pa.). […] The therapeutic index (TI) for single IP dosage was calculated by the equation: […]

[6] = estimated from studies in vitro; read-out: minimal cytotoxic concentration; cited from earlier work
[7] = cited from earlier work
in vivo [8] = details: mouse, sc, 10 mg/kg
Method: (§4) Subcutaneous (sc) pharmacokinetic studies were done using male BDF1 mice, weighing 20-25 grams. […] At each time point, 3 animals were sacrificed.
(§5) A full thickness of the abdominal wall tissue, including the entire skin and the underlying peritoneal membrane, was then excised from the costal margin to the inguinal area and from one flank to the other. The entire tissue specimen was homogenized after addition of at least 20 ml of distilled water with a Polytron homogenizer. The homogenate was sonicated for 60 seconds at a maximum setting with a Biosonic IV probe sonicator and filtered through a YMT ultrafiltration membrane (Amicon Corp, product #4104). All the samples were kept at -20° C. until assayed by HPLC. The RSTRIP program was used to perform the curve fitting. AUC was determined by linear trapezoidal rule up to the last measured concentration and extrapolated to infinity.

in vivo [9] = details: mouse, ip, 10 mg/kg
Method: (§6) The in vivo studies were done on male BDF1 mice weighing 18-25 g. […] The Emit^R assay is a homogeneous enzyme immunoassay technique based on the competition between drug present in the sample and drug labeled with the enzyme glucose-6-phosphate dehydrogenase for antibody binding sites. The limit of sensitivity was 0.02 μM.
(§7) Five μl of the peritoneal fluid samples were collected into a glass capillary pipette and diluted into 140 μl of 0.9% NaCl solution. […] Fifty μl of methanol was added to the pellet and vortexed to break multivesicular particles. The peritoneal cavities were then washed out thoroughly with 2-3 ml of 0.9% NaCl solution thrice. All samples were kept frozen at -20° C. until assayed by HPLC. Extraction of the samples was not necessary, no internal standard was used and there were no interfering peaks. RSTRIP computer program was used to analyze pharmacokinetic data. The area under the curve was determined by linear trapezoidal rule up to the last measured concentration and extrapolated to infinity.

[10] = Subcutaneous pharmacokinetics in BDF1 mice; details: mouse, 10 mg/kg sc
Method: as §4, §5

[11] = Intraperitoneal pharmacokinetics in BDF1 mice; details: mouse, 10 mg/kg ip
Method: as §6, §7

With CN(Cc1cnc2nc(N)nc(N)c2n1)c1ccc(C(=O)N[C@@H](CCC(=O)O)C(=O)O)cc1 [unencapsulated methotrexate, methotrexate] the “Amount t1/2 (total amount of drug within CNS)” value (in vivo [1]) was 43 min, the concentration at 4 h (in vivo [1]) was 0.11 ± 0.02 µM and the half-life (in vivo [1]; Amount t1/2 (total amount of drug within CNS)) was 43.2 min. The half-life (in vivo [1]; Conc. t1/2 α (initial half-life, CSF)) was 34.6 min, the half-life (in vivo [1]; Conc. t1/2 β (terminal half-life, CSF)) was 432 min and the “maximum efficacy (ILS max)” value (L1210 leukemia [2]) was 183%. For the same compound, the LD50 (in vivo [3]) was 2650 mg/kg, the “maximum efficacy (ILS max)” value (L1210 leukemia [4]) was 100% and the LD50 [5] was 2760 mg/kg. The MCC [6] was 500 nM, the “absorption after im or sc administration (in words)” value ([7]; im or sc) was “much more predictable and complete” and the “serum concentrations after im or sc versus oral dose (in words)” value ([7]; im or sc) was “higher serum concentrations than after an oral dose”. The “absorption rate after oral administration (in words)” value ([7]; patients, oral) was “highly variable among patients and appears to be saturable”, the AUC(0-inf) (in vivo [8]; plasma) was 17.3 µM·h and the Cmax (in vivo [8]; plasma) was 17.4 ± 5.2 µM. The Tmax (in vivo [8]; plasma) was 15 min, the half-life (in vivo [8]; plasma) was 31.8 min and the half-life (in vivo [8]; skin at injection site) was 9.6 min. The AUC(0-inf) (in vivo [9]; peritoneal fluid) was 233 µM·h, the Cmax (in vivo [9]; peritoneal fluid) was 430 ± 13 µM and the half-life (in vivo [9]; peritoneal fluid) was 32.4 min. For the same compound, the AUC(0-inf) (in vivo [9]; plasma) was 11.2 µM·h, the half-life (in vivo [9]; plasma) was 54 min and the “Amount t1/2 (total amount of methotrexate in skin)” value ([10]; injection site) was 9.6 min. The “Conc. t1/2 (plasma half-life)” value ([10]; plasma) was 31.8 min, the “Peritoneal Amount t1/2” value ([11]; total amount for MVL-CD-MTX) was 27 min and the “Peritoneal Conc. t1/2” value ([11]; unencapsulated drug or complex, or free methotrexate after MVL-CD-MTX) was 32.4 min.
